Results reported in the kinase profiling compilation of Christmann-Franck et al. (2016).

What was measured:
Assay in all cases: radiometric filter-binding kinase assay
AKT1 (human) = AKT1 (human) (UniProt P31749); conditions: ATP 5 µM
AURKC (human) = AURKC (human) (UniProt Q9UQB9); conditions: ATP 5 µM
CAMKK1 (human) = CAMKK1 (human) (UniProt Q8N5S9); conditions: ATP 20 µM
CAMKK2 (human) = CAMKK2 (human) (UniProt Q96RR4); conditions: compound 10.0 µM; ATP 20 µM
CHEK1 (human) = CHEK1 (human) (UniProt O14757); conditions: compound 10.0 µM; ATP 20 µM
DYRK2 (human) = DYRK2 (human) (UniProt Q92630); conditions: ATP 50 µM
DYRK3 (human) = DYRK3 (human) (UniProt O43781); conditions: ATP 5 µM
Chain of DYRK3 (human) (O43781 whole entry, looked up): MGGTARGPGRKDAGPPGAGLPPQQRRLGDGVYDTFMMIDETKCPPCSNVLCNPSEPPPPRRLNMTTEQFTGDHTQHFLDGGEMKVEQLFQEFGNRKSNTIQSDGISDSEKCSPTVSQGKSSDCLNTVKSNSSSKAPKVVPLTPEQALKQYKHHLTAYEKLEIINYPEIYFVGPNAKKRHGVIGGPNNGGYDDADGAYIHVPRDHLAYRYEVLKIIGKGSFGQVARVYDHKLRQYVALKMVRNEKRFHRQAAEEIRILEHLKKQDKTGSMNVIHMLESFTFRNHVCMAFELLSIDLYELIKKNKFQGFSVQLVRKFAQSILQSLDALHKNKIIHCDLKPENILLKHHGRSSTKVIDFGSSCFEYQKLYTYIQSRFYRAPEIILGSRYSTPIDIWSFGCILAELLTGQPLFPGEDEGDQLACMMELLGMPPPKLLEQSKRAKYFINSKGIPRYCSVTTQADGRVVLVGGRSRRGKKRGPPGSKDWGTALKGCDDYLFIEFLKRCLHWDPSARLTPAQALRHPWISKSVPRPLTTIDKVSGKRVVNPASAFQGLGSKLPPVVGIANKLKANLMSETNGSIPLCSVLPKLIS

EEF2K (human) = EEF2K (human) (UniProt O00418); conditions: ATP 5 µM
HIPK3 (human) = HIPK3 (human) (UniProt Q9H422); conditions: ATP 20 µM
Chain of HIPK3 (human) (Q9H422 whole entry, looked up): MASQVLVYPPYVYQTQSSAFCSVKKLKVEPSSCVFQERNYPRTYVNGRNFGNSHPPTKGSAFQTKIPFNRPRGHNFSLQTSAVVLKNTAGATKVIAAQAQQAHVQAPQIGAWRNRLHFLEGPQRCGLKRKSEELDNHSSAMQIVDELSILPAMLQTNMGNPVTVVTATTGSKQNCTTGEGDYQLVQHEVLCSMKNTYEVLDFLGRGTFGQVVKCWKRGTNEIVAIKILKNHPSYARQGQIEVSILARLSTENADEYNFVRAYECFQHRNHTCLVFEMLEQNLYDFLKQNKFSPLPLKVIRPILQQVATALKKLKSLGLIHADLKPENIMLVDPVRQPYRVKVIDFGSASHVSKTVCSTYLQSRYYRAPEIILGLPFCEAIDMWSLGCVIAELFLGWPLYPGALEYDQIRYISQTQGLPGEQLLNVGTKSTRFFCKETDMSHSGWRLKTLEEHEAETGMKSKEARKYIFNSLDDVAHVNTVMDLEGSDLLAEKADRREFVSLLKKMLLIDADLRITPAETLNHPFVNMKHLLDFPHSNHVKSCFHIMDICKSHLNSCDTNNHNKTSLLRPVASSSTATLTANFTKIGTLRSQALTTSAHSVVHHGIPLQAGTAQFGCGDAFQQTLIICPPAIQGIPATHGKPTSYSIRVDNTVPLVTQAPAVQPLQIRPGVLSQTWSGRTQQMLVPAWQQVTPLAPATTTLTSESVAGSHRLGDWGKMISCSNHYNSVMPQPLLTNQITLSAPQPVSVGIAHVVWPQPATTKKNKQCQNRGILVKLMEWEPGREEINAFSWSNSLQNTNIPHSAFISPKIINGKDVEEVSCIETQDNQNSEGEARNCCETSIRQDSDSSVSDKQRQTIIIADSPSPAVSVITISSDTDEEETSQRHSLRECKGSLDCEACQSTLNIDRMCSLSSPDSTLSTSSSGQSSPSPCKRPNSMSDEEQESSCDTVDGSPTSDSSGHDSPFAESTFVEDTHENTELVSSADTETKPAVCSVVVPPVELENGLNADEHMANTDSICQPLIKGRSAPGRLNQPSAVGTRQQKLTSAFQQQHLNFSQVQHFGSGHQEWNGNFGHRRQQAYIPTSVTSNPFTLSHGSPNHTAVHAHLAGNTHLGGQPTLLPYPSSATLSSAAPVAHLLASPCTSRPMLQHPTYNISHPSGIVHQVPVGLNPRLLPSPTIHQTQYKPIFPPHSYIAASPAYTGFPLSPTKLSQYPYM

IKBKE (human) = IKBKE (human) (UniProt Q14164); conditions: ATP 50 µM
Chain of IKBKE (human) (Q14164 whole entry, looked up): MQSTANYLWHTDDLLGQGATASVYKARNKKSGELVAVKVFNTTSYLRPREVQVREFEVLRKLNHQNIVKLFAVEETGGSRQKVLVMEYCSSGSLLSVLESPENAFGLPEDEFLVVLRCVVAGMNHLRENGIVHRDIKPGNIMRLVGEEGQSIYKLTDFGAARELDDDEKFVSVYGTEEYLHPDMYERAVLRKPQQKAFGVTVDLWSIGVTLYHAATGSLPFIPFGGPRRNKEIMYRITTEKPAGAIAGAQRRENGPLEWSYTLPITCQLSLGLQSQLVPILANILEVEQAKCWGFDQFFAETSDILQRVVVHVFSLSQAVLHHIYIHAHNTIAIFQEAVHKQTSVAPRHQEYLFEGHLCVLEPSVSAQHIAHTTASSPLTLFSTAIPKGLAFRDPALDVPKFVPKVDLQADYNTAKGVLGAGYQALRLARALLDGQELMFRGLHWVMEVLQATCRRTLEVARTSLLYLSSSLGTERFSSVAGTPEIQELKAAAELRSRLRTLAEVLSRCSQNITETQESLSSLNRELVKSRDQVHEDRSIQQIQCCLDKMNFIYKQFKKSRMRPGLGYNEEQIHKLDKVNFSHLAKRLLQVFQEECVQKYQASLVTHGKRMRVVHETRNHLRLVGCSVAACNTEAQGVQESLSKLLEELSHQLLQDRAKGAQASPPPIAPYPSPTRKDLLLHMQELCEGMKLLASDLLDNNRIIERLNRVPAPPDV

LCK (mouse) = conditions: ATP 50 µM, accession and sequence are those of the human protein
MAP2K1 (human) = MAP2K1 (human) (UniProt Q02750); conditions: compound 1.0 µM; ATP 5 µM
MAPK10 (human) = MAPK10 (human) (UniProt P53779); conditions: ATP 50 µM
Chain of MAPK10 (human) (P53779 whole entry, looked up): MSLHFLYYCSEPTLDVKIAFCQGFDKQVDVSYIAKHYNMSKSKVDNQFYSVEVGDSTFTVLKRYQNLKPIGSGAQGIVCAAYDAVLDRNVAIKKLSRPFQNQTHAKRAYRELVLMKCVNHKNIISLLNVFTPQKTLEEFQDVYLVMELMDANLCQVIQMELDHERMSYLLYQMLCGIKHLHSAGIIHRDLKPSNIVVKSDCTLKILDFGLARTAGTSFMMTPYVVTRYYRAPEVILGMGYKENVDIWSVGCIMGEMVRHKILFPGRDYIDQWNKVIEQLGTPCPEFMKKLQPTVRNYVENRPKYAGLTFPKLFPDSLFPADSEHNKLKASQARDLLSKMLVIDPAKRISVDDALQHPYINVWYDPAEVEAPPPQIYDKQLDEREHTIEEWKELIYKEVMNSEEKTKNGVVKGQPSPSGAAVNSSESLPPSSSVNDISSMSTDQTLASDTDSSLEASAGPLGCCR

MAPKAPK3 (human) = MAPKAPK3 (human) (UniProt Q16644); conditions: ATP 20 µM
Chain of MAPKAPK3 (human) (Q16644 whole entry, looked up): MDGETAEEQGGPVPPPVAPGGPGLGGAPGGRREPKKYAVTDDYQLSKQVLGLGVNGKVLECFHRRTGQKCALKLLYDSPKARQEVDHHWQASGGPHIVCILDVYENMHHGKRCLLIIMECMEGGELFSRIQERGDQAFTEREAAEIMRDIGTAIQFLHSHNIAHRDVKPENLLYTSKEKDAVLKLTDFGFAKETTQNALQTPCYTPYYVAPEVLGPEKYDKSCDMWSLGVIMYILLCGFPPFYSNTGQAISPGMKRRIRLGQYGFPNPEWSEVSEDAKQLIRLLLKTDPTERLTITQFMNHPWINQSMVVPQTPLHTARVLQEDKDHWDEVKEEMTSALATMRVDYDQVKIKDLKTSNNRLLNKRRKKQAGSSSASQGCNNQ

MKNK2 (human) = MKNK2 (human) (UniProt Q9HBH9); conditions: compound 10.0 µM; ATP 50 µM
MYLK (human) = MYLK (human) (UniProt Q15746); conditions: ATP 50 µM
NEK2 (human) = NEK2 (human) (UniProt P51955); conditions: ATP 50 µM
NEK6 (human) = NEK6 (human) (UniProt Q9HC98); conditions: compound 10.0 µM; ATP 50 µM
PAK4 (human) = PAK4 (human) (UniProt O96013); conditions: ATP 5 µM
Chain of PAK4 (human) (O96013 whole entry, looked up): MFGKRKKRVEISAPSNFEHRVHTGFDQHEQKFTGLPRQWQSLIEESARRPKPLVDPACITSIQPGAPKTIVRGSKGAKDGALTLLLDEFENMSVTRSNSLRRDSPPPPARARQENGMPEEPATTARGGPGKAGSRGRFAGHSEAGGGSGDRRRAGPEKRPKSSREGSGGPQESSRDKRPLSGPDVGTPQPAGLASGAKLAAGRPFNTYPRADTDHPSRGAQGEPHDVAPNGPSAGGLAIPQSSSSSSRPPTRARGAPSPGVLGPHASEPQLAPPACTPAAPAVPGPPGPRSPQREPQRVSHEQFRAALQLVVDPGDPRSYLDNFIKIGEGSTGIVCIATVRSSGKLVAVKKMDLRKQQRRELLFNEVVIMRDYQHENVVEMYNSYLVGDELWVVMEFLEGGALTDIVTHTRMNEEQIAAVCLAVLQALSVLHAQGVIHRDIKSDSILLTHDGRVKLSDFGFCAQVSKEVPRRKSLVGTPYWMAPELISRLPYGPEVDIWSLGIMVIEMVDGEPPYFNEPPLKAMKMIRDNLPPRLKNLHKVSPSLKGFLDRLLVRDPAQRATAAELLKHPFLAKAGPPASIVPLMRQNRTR

PDPK1 (human) = PDPK1 (human) (UniProt O15530)
Chain of PDPK1 (human) (O15530 whole entry, looked up): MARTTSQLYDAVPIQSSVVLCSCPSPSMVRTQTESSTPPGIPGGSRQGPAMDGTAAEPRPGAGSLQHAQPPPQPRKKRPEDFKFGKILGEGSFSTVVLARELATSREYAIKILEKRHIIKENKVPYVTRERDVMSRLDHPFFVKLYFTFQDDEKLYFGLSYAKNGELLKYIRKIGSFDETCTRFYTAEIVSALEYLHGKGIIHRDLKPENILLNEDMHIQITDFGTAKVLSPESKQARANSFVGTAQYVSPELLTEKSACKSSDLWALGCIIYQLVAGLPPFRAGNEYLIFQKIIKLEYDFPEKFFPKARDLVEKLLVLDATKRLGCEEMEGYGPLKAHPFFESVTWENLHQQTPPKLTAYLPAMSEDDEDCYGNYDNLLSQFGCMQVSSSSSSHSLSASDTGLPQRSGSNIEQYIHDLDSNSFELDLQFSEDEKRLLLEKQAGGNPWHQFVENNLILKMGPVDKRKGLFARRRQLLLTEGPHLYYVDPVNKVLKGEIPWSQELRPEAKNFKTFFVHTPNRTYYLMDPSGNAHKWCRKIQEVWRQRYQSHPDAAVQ

[1] = target: PRKACA or PRKACB or PRKACG (human) (UniProt P22694+P22612+P17612); conditions: ATP 20 µM
Chain of PRKACA or PRKACB or PRKACG (human) (P22612 whole entry, looked up, other chains not shown): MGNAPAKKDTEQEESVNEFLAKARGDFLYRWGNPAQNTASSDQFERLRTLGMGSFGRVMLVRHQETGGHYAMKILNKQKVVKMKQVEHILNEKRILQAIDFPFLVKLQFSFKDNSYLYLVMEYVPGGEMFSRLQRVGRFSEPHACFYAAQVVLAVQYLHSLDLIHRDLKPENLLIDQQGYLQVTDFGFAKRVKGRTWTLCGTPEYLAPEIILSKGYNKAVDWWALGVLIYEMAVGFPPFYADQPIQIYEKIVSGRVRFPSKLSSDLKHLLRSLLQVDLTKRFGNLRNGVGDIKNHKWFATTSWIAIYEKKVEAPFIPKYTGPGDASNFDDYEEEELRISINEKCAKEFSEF

SRC (chicken) = conditions: compound 10.0 µM; ATP 50 µM; accession and sequence are those of the human protein
STK3 (human) = STK3 (human) (UniProt Q13188); conditions: compound 10.0 µM; ATP 20 µM
TBK1 (human) = TBK1 (human) (UniProt Q9UHD2); conditions: compound 1.0 µM; ATP 50 µM

Structure (SMILES): CC(C)(N)c1ccc(-c2nc3ccccc3nc2-c2ccccc2)cc1
- residual activity (AKT1 (human); compound 1.0 µM): 22%
- residual activity (AKT1 (human); compound 10.0 µM): 8%
- residual activity (AURKC (human); compound 1.0 µM): 75%
- residual activity (AURKC (human); compound 10.0 µM): 66%
- residual activity (CAMKK1 (human); compound 1.0 µM): 93%
- residual activity (CAMKK1 (human); compound 10.0 µM): 62%
- residual activity (CAMKK2 (human)): 108%
- residual activity (CHEK1 (human)): 85%
- residual activity (DYRK2 (human); compound 1.0 µM): 113%
- residual activity (DYRK2 (human); compound 10.0 µM): 118%
- residual activity (DYRK3 (human); compound 1.0 µM): 86%
- residual activity (DYRK3 (human); compound 10.0 µM): 75%
- residual activity (EEF2K (human); compound 1.0 µM): 93%
- residual activity (EEF2K (human); compound 10.0 µM): 40%
- residual activity (HIPK3 (human); compound 1.0 µM): 77%
- residual activity (HIPK3 (human); compound 10.0 µM): 66%
- residual activity (IKBKE (human); compound 1.0 µM): 87%
- residual activity (IKBKE (human); compound 10.0 µM): 67%
- residual activity (LCK (mouse); compound 1.0 µM): 84%
- residual activity (LCK (mouse); compound 10.0 µM): 65%
- residual activity (MAP2K1 (human)): 91%
- residual activity (MAPK10 (human); compound 1.0 µM): 88%
- residual activity (MAPK10 (human); compound 10.0 µM): 80%
- residual activity (MAPKAPK3 (human); compound 1.0 µM): 86%
- residual activity (MAPKAPK3 (human); compound 10.0 µM): 71%
- residual activity (MKNK2 (human)): 80%
- residual activity (MYLK (human); compound 1.0 µM): 79%
- residual activity (MYLK (human); compound 10.0 µM): 11%
- residual activity (NEK2 (human); compound 1.0 µM): 91%
- residual activity (NEK2 (human); compound 10.0 µM): 100%
- residual activity (NEK6 (human)): 75%
- residual activity (PAK4 (human); compound 1.0 µM): 92%
- residual activity (PAK4 (human); compound 10.0 µM): 49%
- residual activity (PDPK1 (human); compound 1.0 µM, ATP 20 µM): 96%
- residual activity (PDPK1 (human); compound 1.0 µM, ATP 50 µM): 76%
- residual activity (PDPK1 (human); compound 10.0 µM, ATP 20 µM): 95%
- residual activity ([1]; compound 1.0 µM): 91%
- residual activity ([1]; compound 10.0 µM): 77%
- residual activity (SRC (chicken)): 118%
- residual activity (STK3 (human)): 78%
- residual activity (TBK1 (human)): 101%
